Here are results for one compound from patent publication US7569550B2, “14 and 15 membered ring compounds” (Glaxo Group Limited, priority 2003, dated 2009).

Molecules are shown by their SMILES.

Common to all, as to assay: MIC, standard broth dilution method in microtitre
Holding throughout (assay type): cell-based
(Dilution methods test growth across graded concentrations, often in twofold steps.)

One assay deals with S. pneumoniae SP030. The note with it: Streptococcus pneumoniae. Summed up: (§1)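 Antibacterial activity measured by standard broth microdilution in microtitre format. Readout is minimum inhibitory concentration, in μg/ml.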
The test system of a further assay is S. pyogenes 3565. The note with it: Streptococcus pyogenes. In a few lines: as §1
The test system of assay [1] is M. catarrhalis ATCC 23246. The following applies: Moraxella catarrhalis, ATCC23246. In a few lines: as §1
In assay [2] the test system is S. aureus Smith ATCC 13709. The following applies: Staphylococcus aureus, ATCC13709. Summed up: as §1
The subject of a further assay is E. faecalis ATCC 29212. The following applies: Enterococcus faecalis, ATCC29212. Summed up: as §1
Another assay has as its system H. influenzae ATCC 49247. The note with it: Haemophilus influenzae, ATCC49247; H. influenzae ATCC 49247; read-out: MIC. Summed up:
as §1

For assay [3], the system named is erythromycin resistant strains of Streptococcus pyogenes. On the procedure: (§2) Using a standard broth dilution method in microtitre, compounds were tested for antibacterial activity. The compounds in the above examples gave minimum inhibitory concentrations (MICs) less than 1 microgram per millilitre against erythromycin-sensitive and erythromycin-resistant strains of Streptococcus pneumoniae and Streptococcus pyogenes.

For assay [4], the system named is erythromycin resistant strains of Streptococcus pneumoniae. As for the experimental part:
as §2

As to `CC[C@H]1OC(=O)[C@H](C)[C@@H](O[C@H]2C[C@@](C)(OC)[C@@H](OCCCN(C)CCSc3ccc4c(c3)c(=O)c(C(=O)O)cn4CC)[C@H](C)O2)[C@H](C)[C@@H](O[C@@H]2O[C@H](C)C[C@H](N(C)C)[C@H]2O)[C@](C)(OC)C[C@@H](C)C(=O)[C@@H](C)[C@H]2NC(=O)O[C@@]21C` [Example 32, 4″-O-{3-[[2-(3-Carboxy-1-ethyl-4-oxo-1,4-dihydro-quinolin-6-ylsulfanyl)-ethyl]-methylamino]-propyl}-6-O-methyl-11-desoxy-11-(R)-amino-erythromycin A 11,12-carbamate], the MIC in the assay on S. pneumoniae SP030 was no more than 1 µg/mL; with S. pyogenes 3565, no more than 1 µg/mL; in assay [1] it was no more than 4 µg/mL; in assay [2] it was no more than 1 µg/mL; with E. faecalis ATCC 29212, no more than 1 µg/mL; in the assay on H. influenzae ATCC 49247 it was no more than 4 µg/mL. The MIC in assay [3] and in assay [4] was no more than 1 µg/mL each time.
